Measured values published in article PMC5571287 (Antimicrobial Agents and Chemotherapy, 2017).
Like-named read-outs stand apart in the source and are kept apart here.

Legend:
[1] = tested on: RSVA 492; settings: human respiratory syncytial virus
[2] = tested on: Herpes simplex virus 1 (HF strain); assay: microbe, parasite or virus in culture; format: cell-based; settings: Herpes simplex virus 1, Vero
[3] = tested on: Influenza virus H1N1 (A/PR/34 strain); assay: microbe, parasite or virus in culture; format: cell-based; settings: Influenza virus H1N1, A549
[4] = tested on: RSVB 1276; assay: microbe, parasite or virus in culture; format: cell-based; settings: human respiratory syncytial virus, RSVB 1276, clinical, 3 parameter curve fit
[5] = tested on: RSVA 492; assay: microbe, parasite or virus in culture; format: cell-based; settings: human respiratory syncytial virus, RSVA 492, clinical
[6] = tested on: RSV A Long; assay: RSV A Long-infected cotton rats, lung homogenate viral load and transcripts; format: in vivo
[7] = tested on: RSVB 1262; assay: microbe, parasite or virus in culture; format: cell-based; settings: human respiratory syncytial virus, RSVB 1262, clinical
[8] = tested on: RSVB 1276; settings: human respiratory syncytial virus
[9] = Antiviral panel: cytotoxicity; format: cell-based; settings: human, Huh-7 cells with HCV GT1b replicon; Huh-7, GT1b replicon
[10] = tested on: RSVB 1262; settings: human respiratory syncytial virus
[11] = tested on: RSV B 9320; settings: human respiratory syncytial virus
[12] = in vitro; settings: rhesus monkey
[13] = tested on: HIV-1 (IIIB strain); assay: microbe, parasite or virus in culture; format: cell-based, human immunodeficiency virus type 1; settings: HIV-1, CEM-SS
[14] = tested on: RSVB 1000; settings: human respiratory syncytial virus
[15] = tested on: PC786 escape mutant (Y1631H) of RSV A2; format: cell-based, respiratory syncytial virus; settings: CPE
[16] = target: human polymerase α (Homo sapiens, UniProt P09884); assay: Human polymerase inhibition in vitro (data not shown); format: biochemical; settings: up to 1 μM
[17] = tested on: Measles virus (Edmonton strain); assay: microbe, parasite or virus in culture; format: cell-based; settings: MRC5
[18] = tested on: RSV A2; assay: Time-of-addition assay and MOI dependency, CPE (methylene blue) in HEp-2; format: cell-based; settings: human respiratory syncytial virus
[19] = tested on: RSV A 2000/3-4; assay: CPE 1, resazurin 384-well CPE assay in HEp-2; format: cell-based; settings: human respiratory syncytial virus
Method: (§1) For known clinical strains (RSV A 1997/12-35, 2001/2-20, 200/3-4, and Memphis 37), a 384-well-format resazurin-based CPE assay was conducted.

[20] = tested on: RSV A 1997/12-35; assay: CPE 1, resazurin 384-well CPE assay in HEp-2; format: cell-based; settings: human respiratory syncytial virus
Method: as §1

[21] = tested on: RSV A 2001/2-20; assay: CPE 1, resazurin 384-well CPE assay in HEp-2; format: cell-based; settings: human respiratory syncytial virus
Method: as §1

[22] = tested on: RSV A Memphis 37c; assay: CPE 1, resazurin 384-well CPE assay in HEp-2; format: cell-based; settings: human respiratory syncytial virus
Method: as §1

[23] = HEp-2, read-out: RSV titre in supernatant IC50 (0.3 Log PFUe reduction) (converted)
[24] = HEp-2, read-out: RSV titre in supernatant IC90 (1 Log PFUe reduction) (converted)

Sequence of human polymerase α (P09884 whole entry): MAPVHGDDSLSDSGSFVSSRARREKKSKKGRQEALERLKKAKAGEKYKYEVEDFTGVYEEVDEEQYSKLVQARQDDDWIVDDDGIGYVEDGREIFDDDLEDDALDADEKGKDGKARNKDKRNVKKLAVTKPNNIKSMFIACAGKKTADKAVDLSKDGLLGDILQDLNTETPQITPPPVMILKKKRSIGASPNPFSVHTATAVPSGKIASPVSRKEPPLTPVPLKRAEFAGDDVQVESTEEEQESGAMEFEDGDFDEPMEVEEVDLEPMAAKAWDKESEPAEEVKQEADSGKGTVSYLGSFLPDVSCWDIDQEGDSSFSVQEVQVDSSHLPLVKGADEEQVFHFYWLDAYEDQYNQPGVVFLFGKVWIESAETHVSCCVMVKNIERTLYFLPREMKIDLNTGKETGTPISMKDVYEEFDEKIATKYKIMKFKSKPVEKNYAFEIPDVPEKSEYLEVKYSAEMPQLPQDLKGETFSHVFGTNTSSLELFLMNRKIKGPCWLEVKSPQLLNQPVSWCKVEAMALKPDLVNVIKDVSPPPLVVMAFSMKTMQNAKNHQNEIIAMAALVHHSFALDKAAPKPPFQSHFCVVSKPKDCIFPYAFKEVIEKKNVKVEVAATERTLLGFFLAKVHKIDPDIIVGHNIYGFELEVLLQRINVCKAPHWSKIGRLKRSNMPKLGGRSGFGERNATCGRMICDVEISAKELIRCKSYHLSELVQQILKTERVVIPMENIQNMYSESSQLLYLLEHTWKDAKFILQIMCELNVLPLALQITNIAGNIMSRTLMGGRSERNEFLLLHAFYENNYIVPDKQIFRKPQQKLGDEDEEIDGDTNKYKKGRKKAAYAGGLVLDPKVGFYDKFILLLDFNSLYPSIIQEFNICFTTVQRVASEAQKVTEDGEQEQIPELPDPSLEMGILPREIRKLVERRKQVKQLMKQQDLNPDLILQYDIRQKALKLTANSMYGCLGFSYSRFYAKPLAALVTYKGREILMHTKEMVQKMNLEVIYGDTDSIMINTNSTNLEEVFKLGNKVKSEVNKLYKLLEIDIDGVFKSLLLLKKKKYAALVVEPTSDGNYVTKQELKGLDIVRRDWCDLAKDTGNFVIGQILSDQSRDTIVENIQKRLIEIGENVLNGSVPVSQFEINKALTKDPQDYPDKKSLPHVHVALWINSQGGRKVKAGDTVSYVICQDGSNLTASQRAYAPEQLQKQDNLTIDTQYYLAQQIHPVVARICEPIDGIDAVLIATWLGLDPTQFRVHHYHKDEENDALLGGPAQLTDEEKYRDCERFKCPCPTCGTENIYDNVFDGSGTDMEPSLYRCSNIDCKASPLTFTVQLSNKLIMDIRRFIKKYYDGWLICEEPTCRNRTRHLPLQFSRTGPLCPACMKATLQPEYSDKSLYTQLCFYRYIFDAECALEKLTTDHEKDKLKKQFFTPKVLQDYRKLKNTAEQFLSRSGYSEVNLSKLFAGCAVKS

Compound: Cc1cnc(N2CC3(CCOCC3)C2)c(C(=O)Nc2ccc(C(=O)N3CCc4cc(C(=O)Nc5c(C)cccc5F)sc4-c4ccccc43)cc2)c1 [PC786, N-(2-fluoro-6-methylphenyl)-6-(4-(5-methyl-2-(7-oxa-2-azaspiro[3.5]nonan-2-yl)nicotinamido)benzoyl)-5,6-dihydro-4H-benzo[b]thieno[2,3-d]azepine-2-carboxamide]
- IC50 [1, 23]: 0.43 nM
- IC90 [1, 24]: 0.5 nM
- IC90 or IC95 [2]: >14000 nM
- IC50 ([2]; Human alphaherpesvirus 1): > 14000 nM
- IC90 or IC95 [3]: >14000 nM
- IC50 ([3]; unidentified influenza virus): > 14000 nM
- IC50 ([4]; read-out: CPE IC50): 50.6 nM
- IC90 ([4]; read-out: CPE IC90): 821 nM
- IC50 ([5]; read-out: CPE IC50): 0.42 nM
- IC90 ([5]; read-out: CPE IC90): 0.57 nM
- IP-10 transcripts in lung homogenates ([6]; i.n. 0.33-10 mg/ml, day 4): dose-dependent inhibition
- RANTES transcripts in lung homogenates ([6]; i.n. 0.33-10 mg/ml, day 4): dose-dependent inhibition
- RSV NS-1 gene transcripts in lung homogenates ([6]; i.n. 0.33-10 mg/ml, day 4): dose-dependent inhibition
- viral load in lung homogenates on day 4 ([6]; i.n. once daily days 0 to 3, doses of more than […] (165 μg/cotton rat)): lower than the detection limit
- IC50 ([7]; read-out: CPE IC50): 14.5 nM
- IC90 ([7]; read-out: CPE IC90): 692 nM
- IC50 [8, 23]: 15.1 nM
- IC90 [8, 24]: 22.5 nM
- CC50 at 3 days [9]: > 14000 nM
- IC50 [10, 23]: 9.36 nM
- IC90 [10, 24]: 12.3 nM
- IC50 ([11]; HEp-2, read-out: PCR IC50 (0.3 Log PFUe reduction) (converted)): 30.3 nM
- IC90 ([11]; HEp-2, read-out: PCR IC90 (1 Log PFUe reduction) (converted)): 31 nM
- CC50 [12]: > 14000 nM
- IC90 or IC95 [13]: >14000 nM
- IC50 ([13]; Human immunodeficiency virus 1, IIIB): > 14000 nM
- IC50 [14, 23]: 10.3 nM
- IC90 [14, 24]: 12.4 nM
- IC50 ([15]; read-out: PC786 escape mutant IC50, N=3, after 6th passage): 17.9 nM
- IC90 ([15]; read-out: PC786 escape mutant IC90, N=3): 1120 nM
- inhibitory effects on human polymerase α [16]: no measurable inhibitory effects
- IC90 or IC95 [17]: >14000 nM
- IC50 ([17]; Measles morbillivirus): > 14000 nM
- IC50 ([18]; HEp-2, 24 h, MOI 0.02, n = 3, read-out: IC50 at treatment time 24 h postinoculation): 0.85 nM
- IC50 ([18]; HEp-2, 24 h, MOI 0.1, n = 3, read-out: IC50 at treatment time 24 h postinoculation): 1.09 nM
- IC50 ([18]; HEp-2, 24 h, MOI 1.0, n = 3, read-out: IC50 at treatment time 24 h postinoculation): 0.5 nM
- IC50 ([18]; HEp-2, 48 h, read-out: IC50 at treatment time 48 h postinoculation, MOI 0.02, n = 3): 0.94 nM
- IC50 ([18]; HEp-2, 48 h, read-out: IC50 at treatment time 48 h postinoculation, MOI 0.1, n = 3): 2.36 nM
- IC50 ([18]; HEp-2, 48 h, read-out: IC50 at treatment time 48 h postinoculation, MOI 1.0, n = 3): 0.46 nM
- IC50 ([18]; HEp-2, 72 h, MOI 0.02, n = 3, read-out: IC50 at treatment time 72 h postinoculation): > 93.4 nM
- IC50 ([18]; HEp-2, 72 h, MOI 0.1, n = 3, read-out: IC50 at treatment time 72 h postinoculation): > 140 nM
- IC50 ([18]; HEp-2, 72 h, MOI 1.0, n = 3, read-out: IC50 at treatment time 72 h postinoculation): > 140 nM
- IC50 ([18]; HEp-2, MOI 0.02, n = 3, CPE at 144 h, read-out: IC50 at treatment time 0 h postinoculation): 0.6 nM
- IC50 ([18]; HEp-2, MOI 0.1, n = 3, CPE at 144 h, read-out: IC50 at treatment time 0 h postinoculation): 0.99 nM
- IC50 ([18]; HEp-2, MOI 1.0, n = 3, CPE at 144 h, read-out: IC50 at treatment time 0 h postinoculation): 0.44 nM
- IC50 [19]: 0.14 nM
- IC50 [20]: 0.35 nM
- IC50 [21]: 0.53 nM
- IC50 [22]: 0.5 nM
